Drawing on US12637433B2, “Histone deacetylase inhibitors” (THE UNIVERSITY OF QUEENSLAND, priority 2020, dated 2026), this text covers IC50 for 24 molecules.

What all share (assay type): biochemical
The target in one assay is T1, human HDAC1 enzyme (Homo sapiens, UniProt Q13547).
T1 construct: purchased BPS Bioscience
As to the kind of experiment: Human HDAC1 enzyme assay (Class I HDACs). The method, then:
The inhibitory effect of compounds on HDAC1 activity was assessed in vitro using an optimised assay performed in black/flat black wall 384-well plate (Corning Inc.). All reagents and compounds were prepared in HDAC1 assay buffer (25 mM Tris-HCl, 137 mM NaCl, 2.7 mM KCl, 1 mM MgCl2·H2O and 0.1 mg/mL bovine serum albumin; pH 8). Various concentrations of inhibitor were pre-incubated with 50 ng/mL human HDAC1 enzyme (BPS Bioscience) for 30 min at room temperature on a plate shaker. Substrate (Leu(Ac)-Gly-Lys(Ac)-AMC, 12 μM) were then added and incubated for 90 min at 37° C. in the dark. The enzymatic reaction was then incubated with the developer solution (1 mg/mL trypsin and 25 μM SAHA) for 15-20 min at room temperature. Fluorescence intensity was measured using PHERAstar plate reader (BMG Labtech) at 350 nm excitation and 460 nm emission.
(§1) Data analysis: Triplicate measurements were made for each data point and error bars represent mean±SEM of three independent experiments. All data were plotted and analysed using GraphPad Prism Version 6.0d for Mac OS X (GraphPad Software). Dose Response Curves plotted using 4 parameters logistic model.

Another assay concerns the target T2, human HDAC7 enzyme (Homo sapiens, UniProt Q8WUI4).
T2 construct: purchased Reaction Biology Corp
Nature of the assay: Human HDAC7 enzyme assay (Class IIa HDACs). The following applies: Table 8; recombinant human HDAC7.

The next assay concerns the target HDAC9 (Homo sapiens, UniProt Q9UKV0). As to the kind of experiment: Isoform selectivity, HDAC9 inhibition. The following applies: Table 9; recombinant human HDAC; read-out: IC50, Class IIa HDAC9.
For another assay, the target named is HDAC4 (Homo sapiens, UniProt P56524). As to the kind of experiment: Isoform selectivity, HDAC4 inhibition. The following applies: Table 9; recombinant human HDAC; read-out: IC50, Class IIa HDAC4.
The next assay has as its target T3, human HDAC6 enzyme (Homo sapiens, UniProt Q9UBN7).
T3 construct: purchased Cayman Chemical
As to the kind of experiment: Human HDAC6 enzyme assay (Class IIb HDACs). The following applies: Table 9; recombinant human HDAC. The procedure:
The inhibitory effect of compounds on HDAC6 activity was assessed in vitro using an optimised assay performed in black/flat black wall 384-well plate (Corning Inc.). All reagents and compounds were prepared in HDAC assay buffer (25 mM Tris-HCl, 137 mM NaCl, 2.7 mM KCl, 1 mM MgCl2·H2O and 0.1 mg/mL bovine serum albumin; pH 8). Various concentrations of inhibitor were pre-incubated with 100 ng/ml human HDAC6 enzyme (Cayman Chemical) for 15 min at room temperature on a plate shaker. Substrate (Boc-Lys(Ac)-AMC, 25 μM) were then added and incubated for 60 min at 37° C. in the dark. The enzymatic reaction was then incubated with the developer solution (1 mg/mL trypsin and 10 μM SAHA) for 15-20 min at room temperature. Fluorescence intensity was measured using PHERAstar plate reader (BMG Labtech) at 350 nm excitation and 460 nm emission.
as §1

The next assay addresses HDAC5 (Homo sapiens, UniProt Q9UQL6). Nature of the assay: Isoform selectivity, HDAC5 inhibition. The following applies: Table 9; recombinant human HDAC; read-out: IC50, Class IIa HDAC5.
[1] abbreviates: Table 8, recombinant human HDAC1, read-out: IC50 (nM) (HDAC1).
[2] abbreviates: Table 9, recombinant human HDAC, read-out: IC50, Class I HDAC1.

Usually IC50 stands for the concentration needed to halve the response being measured.

Like-named read-outs stand apart in the source and are kept apart here.

Chain of HDAC9 (Q9UKV0 whole entry, canonical isoform): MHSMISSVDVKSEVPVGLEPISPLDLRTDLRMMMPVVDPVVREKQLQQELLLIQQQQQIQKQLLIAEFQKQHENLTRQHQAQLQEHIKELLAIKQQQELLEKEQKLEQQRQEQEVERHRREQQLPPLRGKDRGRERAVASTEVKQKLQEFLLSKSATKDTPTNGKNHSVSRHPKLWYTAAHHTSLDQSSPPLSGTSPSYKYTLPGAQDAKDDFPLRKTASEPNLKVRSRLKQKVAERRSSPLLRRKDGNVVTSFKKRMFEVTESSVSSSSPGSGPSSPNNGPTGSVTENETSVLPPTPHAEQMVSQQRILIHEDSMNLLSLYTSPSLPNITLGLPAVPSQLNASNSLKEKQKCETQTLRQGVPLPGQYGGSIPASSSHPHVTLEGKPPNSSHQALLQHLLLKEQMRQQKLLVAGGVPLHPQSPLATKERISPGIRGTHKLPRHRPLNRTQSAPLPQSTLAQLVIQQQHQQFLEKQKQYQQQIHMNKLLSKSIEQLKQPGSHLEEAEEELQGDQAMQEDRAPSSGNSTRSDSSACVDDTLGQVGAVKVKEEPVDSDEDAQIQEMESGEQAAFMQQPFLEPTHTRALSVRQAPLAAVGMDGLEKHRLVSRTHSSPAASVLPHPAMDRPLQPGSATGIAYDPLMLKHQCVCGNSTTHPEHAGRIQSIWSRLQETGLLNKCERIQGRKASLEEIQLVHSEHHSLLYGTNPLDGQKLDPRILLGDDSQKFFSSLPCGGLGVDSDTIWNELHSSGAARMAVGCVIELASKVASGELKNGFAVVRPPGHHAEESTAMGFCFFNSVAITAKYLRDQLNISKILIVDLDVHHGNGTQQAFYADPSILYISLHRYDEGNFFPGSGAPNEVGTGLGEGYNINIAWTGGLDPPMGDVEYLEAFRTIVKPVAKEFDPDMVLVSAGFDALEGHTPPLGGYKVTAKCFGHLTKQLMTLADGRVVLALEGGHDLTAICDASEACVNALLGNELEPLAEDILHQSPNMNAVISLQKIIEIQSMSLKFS
T1 sequence (Q13547 whole entry): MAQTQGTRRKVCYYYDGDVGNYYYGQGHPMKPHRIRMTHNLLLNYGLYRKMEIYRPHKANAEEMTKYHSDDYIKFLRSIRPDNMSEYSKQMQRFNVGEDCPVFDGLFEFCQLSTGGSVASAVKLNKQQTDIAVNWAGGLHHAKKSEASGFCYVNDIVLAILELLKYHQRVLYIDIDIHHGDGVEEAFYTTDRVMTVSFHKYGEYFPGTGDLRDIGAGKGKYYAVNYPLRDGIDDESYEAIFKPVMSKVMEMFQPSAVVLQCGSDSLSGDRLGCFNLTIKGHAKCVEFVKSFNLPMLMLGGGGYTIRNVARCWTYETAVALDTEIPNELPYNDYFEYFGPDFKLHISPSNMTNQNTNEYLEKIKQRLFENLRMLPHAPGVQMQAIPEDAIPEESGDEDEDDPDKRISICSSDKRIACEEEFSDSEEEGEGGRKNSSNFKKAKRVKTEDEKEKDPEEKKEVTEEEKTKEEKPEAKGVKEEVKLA
Chain of HDAC5 (Q9UQL6 whole entry, canonical isoform): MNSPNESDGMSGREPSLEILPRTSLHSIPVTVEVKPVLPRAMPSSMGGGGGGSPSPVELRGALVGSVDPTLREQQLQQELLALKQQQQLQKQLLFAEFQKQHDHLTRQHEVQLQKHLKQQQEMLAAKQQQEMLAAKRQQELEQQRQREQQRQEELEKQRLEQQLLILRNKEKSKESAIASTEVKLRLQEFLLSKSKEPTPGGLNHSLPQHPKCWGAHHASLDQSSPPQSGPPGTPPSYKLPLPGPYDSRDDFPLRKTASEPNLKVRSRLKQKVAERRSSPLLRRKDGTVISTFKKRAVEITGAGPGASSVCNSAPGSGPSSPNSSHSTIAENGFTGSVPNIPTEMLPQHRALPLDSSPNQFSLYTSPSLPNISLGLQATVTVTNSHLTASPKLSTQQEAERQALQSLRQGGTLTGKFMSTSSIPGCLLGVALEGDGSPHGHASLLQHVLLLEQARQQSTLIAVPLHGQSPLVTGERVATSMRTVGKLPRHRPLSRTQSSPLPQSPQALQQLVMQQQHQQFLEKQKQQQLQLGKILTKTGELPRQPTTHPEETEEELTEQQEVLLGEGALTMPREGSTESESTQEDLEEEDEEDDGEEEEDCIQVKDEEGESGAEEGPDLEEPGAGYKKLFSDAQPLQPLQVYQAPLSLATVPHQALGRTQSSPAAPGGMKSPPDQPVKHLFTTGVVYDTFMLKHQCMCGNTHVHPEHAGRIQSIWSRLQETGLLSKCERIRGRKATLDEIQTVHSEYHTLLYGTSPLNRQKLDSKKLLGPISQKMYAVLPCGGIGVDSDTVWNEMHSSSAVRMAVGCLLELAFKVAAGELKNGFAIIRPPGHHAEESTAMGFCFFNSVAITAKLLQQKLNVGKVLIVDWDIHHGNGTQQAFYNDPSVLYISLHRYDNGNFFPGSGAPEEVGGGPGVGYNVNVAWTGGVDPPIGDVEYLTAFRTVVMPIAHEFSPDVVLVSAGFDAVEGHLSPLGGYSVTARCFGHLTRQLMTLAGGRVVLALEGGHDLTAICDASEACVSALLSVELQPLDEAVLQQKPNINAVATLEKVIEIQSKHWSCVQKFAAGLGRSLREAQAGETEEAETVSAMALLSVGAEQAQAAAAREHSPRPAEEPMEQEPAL
Chain of HDAC4 (P56524 whole entry, canonical isoform): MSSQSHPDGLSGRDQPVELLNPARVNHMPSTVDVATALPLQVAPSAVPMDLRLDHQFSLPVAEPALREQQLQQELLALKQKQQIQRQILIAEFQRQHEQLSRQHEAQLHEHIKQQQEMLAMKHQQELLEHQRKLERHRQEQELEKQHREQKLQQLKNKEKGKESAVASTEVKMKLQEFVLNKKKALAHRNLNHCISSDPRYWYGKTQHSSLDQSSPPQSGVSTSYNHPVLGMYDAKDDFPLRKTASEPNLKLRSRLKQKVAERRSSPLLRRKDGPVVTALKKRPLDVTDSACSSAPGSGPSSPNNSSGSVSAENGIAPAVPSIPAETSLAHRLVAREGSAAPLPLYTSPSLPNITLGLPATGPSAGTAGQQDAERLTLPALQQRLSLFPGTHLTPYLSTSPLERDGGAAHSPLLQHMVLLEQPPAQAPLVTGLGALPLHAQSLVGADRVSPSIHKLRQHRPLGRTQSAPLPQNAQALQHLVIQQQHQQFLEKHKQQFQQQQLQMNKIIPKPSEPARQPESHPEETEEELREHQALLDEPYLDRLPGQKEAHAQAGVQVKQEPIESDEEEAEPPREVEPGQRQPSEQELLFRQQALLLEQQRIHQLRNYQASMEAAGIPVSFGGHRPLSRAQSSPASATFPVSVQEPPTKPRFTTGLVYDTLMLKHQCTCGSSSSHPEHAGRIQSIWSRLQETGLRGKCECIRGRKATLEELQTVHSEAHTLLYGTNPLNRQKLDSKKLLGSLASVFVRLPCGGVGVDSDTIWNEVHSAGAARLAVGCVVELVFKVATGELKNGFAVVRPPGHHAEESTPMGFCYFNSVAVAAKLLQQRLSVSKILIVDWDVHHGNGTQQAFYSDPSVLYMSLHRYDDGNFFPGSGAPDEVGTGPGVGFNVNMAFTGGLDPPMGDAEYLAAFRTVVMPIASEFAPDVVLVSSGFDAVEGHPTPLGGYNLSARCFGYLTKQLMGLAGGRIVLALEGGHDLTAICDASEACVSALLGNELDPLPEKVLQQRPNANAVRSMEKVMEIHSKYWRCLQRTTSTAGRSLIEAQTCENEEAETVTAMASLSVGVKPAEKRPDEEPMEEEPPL
T2 sequence (Q8WUI4 whole entry): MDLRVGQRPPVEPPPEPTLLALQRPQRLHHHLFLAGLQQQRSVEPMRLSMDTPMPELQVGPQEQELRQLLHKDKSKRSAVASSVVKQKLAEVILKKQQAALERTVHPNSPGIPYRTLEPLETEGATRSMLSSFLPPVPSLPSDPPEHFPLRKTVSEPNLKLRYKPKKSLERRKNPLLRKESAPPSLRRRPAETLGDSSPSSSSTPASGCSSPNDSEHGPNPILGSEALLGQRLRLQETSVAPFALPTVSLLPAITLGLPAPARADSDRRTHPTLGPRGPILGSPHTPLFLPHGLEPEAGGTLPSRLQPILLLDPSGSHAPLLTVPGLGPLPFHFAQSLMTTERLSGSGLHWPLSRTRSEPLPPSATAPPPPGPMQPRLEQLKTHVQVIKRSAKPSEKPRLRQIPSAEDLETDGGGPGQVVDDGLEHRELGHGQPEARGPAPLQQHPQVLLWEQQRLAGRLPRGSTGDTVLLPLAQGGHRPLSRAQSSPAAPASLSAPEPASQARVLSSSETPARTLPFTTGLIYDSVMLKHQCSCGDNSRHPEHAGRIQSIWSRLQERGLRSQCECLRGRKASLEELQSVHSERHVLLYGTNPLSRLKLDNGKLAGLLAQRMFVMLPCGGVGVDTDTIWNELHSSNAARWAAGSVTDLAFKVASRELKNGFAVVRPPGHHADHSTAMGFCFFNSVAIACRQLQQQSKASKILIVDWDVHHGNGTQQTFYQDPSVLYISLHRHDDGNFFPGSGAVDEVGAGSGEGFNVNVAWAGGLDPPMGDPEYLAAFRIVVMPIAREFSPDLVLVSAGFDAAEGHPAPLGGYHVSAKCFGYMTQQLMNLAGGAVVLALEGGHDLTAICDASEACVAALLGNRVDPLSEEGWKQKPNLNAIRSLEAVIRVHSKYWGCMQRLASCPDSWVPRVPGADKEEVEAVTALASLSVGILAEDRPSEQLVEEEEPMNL

Regarding `O=C(NCc1ccc(C(=O)NO)c(Br)c1)Nc1cccc2cccnc12` [Example 1, 2-bromo-N-hydroxy-4-((3-(quinolin-8-yl)ureido)methyl)benzamide, reference compound], the 50% inhibitory concentration (IC50) at human HDAC1 enzyme (setting [1]) was 3840 ± 1630 nM; at human HDAC7 enzyme it was above 10000 nM.

Regarding `Cc1nc2ccccc2c(=O)n1Cc1ccc(C(=O)NO)c(-c2ccccc2)c1` [compound 12], the IC50 on HDAC9 was 17 ± 3 nM; at human HDAC1 enzyme (setting [1]), 2200 nM; at HDAC4, 42 ± 7 nM; at human HDAC6 enzyme, 1100 nM; on human HDAC7 enzyme, 7.3 ± 1.2 nM; on HDAC5 it was 9 ± 2 nM.

On to `NC(=O)c1ccc(Nc2ccc(C(=O)NO)c(-c3ccccc3)c2)cc1` [Example 79], for which the half-inhibitory concentration (IC50) at human HDAC1 enzyme (setting [1]) was above 10000 nM; on human HDAC7 enzyme, 43 ± 9 nM.

Regarding `Cc1cc(=O)n(Cc2ccc(C(=O)NO)c(-c3ccccc3)c2)c(C)n1` [Example 45], the IC50 on human HDAC1 enzyme (setting [1]) was above 10000 nM.

In the case of `Cc1cc(F)ccc1-c1cc(Cn2c(C)nc3ccccc3c2=O)ccc1C(=O)NO` [Example 13], the results for the half-maximal inhibitory concentration (IC50) at human HDAC1 enzyme (setting [1]) and at human HDAC7 enzyme were 4210 ± 1760 nM and 12 ± 1.2 nM, respectively.

`O=C(NCc1ccc(C(=O)NO)c(Oc2ccccc2)c1)Nc1cccc2cccnc12` [Example 3, 2-phenoxy-N-hydroxy-4-((3-(quinolin-8-yl)ureido)methyl)benzamide, reference compound]: the half-maximal inhibitory concentration (IC50) was 2520 ± 1340 nM at human HDAC1 enzyme (setting [1]) and above 10000 nM on human HDAC7 enzyme.

With `O=C(NCc1ccc(C(=O)NO)c(-c2ccccc2)c1)c1ccccc1F` [Example 50], the IC50 on human HDAC1 enzyme (setting [1]) is 16000 nM.

As to `O=C(NO)c1ccc(CN2C(=O)c3cccc(F)c3C2=O)cc1-c1ccccc1` [Example 55], the concentration for half-maximal inhibition (IC50) at HDAC9 was determined as 183 ± 102 nM; on human HDAC1 enzyme (setting [1]), 27000 nM; at human HDAC1 enzyme (setting [2]), 27000 nM; at HDAC4, 13 ± 3 nM; at human HDAC6 enzyme, 4400 nM; at HDAC5, 16 ± 2 nM.

In the case of `O=C(NO)c1ccc(CN2C(=O)c3cccnc3C2=O)cc1-c1ccccc1` [Example 53], the IC50 on human HDAC1 enzyme (setting [1]) was found to be 28000 nM.

Regarding `O=C(NO)c1ccc(CN2C(=O)CCC2=O)cc1-c1ccccc1` [Example 51], the IC50 on human HDAC1 enzyme (setting [1]) is above 20000 nM.

Turning to `O=C(NO)c1ccc(CN2C(=O)c3ccccc3S2(=O)=O)cc1-c1ccccc1` [Example 56], the half-maximal inhibitory concentration (IC50) turned out to be 93 ± 44 nM at HDAC9; 4900 nM on human HDAC1 enzyme (setting [1]); 4900 nM on human HDAC1 enzyme (setting [2]); 48 ± 6 nM on HDAC4; 5500 nM at human HDAC6 enzyme; 8 ± 1 nM on HDAC5.

With `O=C(NCc1ccc(C(=O)NO)c(-c2ccccc2)c1)c1ccc[nH]1` [Example 23], the IC50 on human HDAC1 enzyme (setting [1]) was above 10000 nM; at human HDAC7 enzyme, 81 ± 14 nM.

Take `Cc1nc2ccccc2c(=O)n1Cc1ccc(C(=O)NO)c(-c2ccc(F)cc2)c1` [Example 14]: the IC50 stood at 15 ± 3 nM on HDAC9; 3200 nM on human HDAC1 enzyme (setting [1]); 22 ± 3 nM on HDAC4; 1300 ± 480 nM on human HDAC6 enzyme; 6.4 ± 0.8 nM on human HDAC7 enzyme; 8 ± 1 nM on HDAC5.

Consider `O=C(NO)c1ccc(Cn2c(=O)cc[nH]c2=O)cc1-c1ccccc1` [Example 38], for which the IC50 on human HDAC1 enzyme (setting [1]) was above 10000 nM.

For `O=C(NO)c1ccc(CN2C(=O)c3ccccc3C2=O)cc1-c1ccccc1` [Example 36], the IC50 on HDAC9 stood at 133 ± 52 nM; at human HDAC1 enzyme (setting [1]), 32000 nM; at human HDAC1 enzyme (setting [2]), 32000 nM; on HDAC4, 28 ± 4 nM; at human HDAC6 enzyme it was 5700 nM; on HDAC5 it was 12 ± 2 nM.

For `O=C(NO)c1ccc(Cn2cnc3ccccc3c2=O)cc1-c1ccccc1` [Example 34], the IC50 at human HDAC1 enzyme (setting [1]) is 3190 ± 816 nM.

Turning to `O=C(NO)c1ccc(CN2Cc3ccccc3C2=O)cc1-c1ccccc1` [Example 49], at human HDAC1 enzyme (setting [1]), the IC50 came to 33000 nM.

For the molecule `O=C(NO)c1ccc(CN2C(=O)c3ccncc3C2=O)cc1-c1ccccc1` [Example 54], at human HDAC1 enzyme (setting [1]), the IC50 was above 20000 nM.

Turning to `O=C(NCc1ccc(C(=O)NO)c(-c2ccccc2)c1)c1cc2ccccc2[nH]1` [Example 24], the concentration for half-maximal inhibition (IC50) was above 10000 nM at human HDAC1 enzyme (setting [1]) and 59 ± 10 nM on human HDAC7 enzyme.

With `O=C(NO)c1ccc(NC(=O)C2(c3ccc(Br)cc3)CCCC2)cc1-c1ccccc1` [Example 65], the figures for the IC50 on human HDAC1 enzyme (setting [1]) and at human HDAC7 enzyme were 4900 ± 1710 nM and 1210 ± 700 nM, respectively.

With `CC(C)C(C(=O)Nc1ccc(C(=O)NO)c(-c2ccccc2)c1)c1ccccc1` (centres unmarked) [Example 59], the values for the 50% inhibitory concentration (IC50) on human HDAC1 enzyme (setting [1]) and on human HDAC7 enzyme were above 10000 nM and 555 ± 334 nM, respectively.

Consider `O=C(NCc1ccc(C(=O)NO)c(-c2ccccc2)c1)Nc1cccc2cccnc12` [Example 2], for which the IC50 on human HDAC1 enzyme (setting [1]) was found to be 2360 ± 452 nM; at human HDAC7 enzyme, 214 ± 54 nM.

For `CCc1nc2ccccc2c(=O)n1Cc1ccc(C(=O)NO)c(-c2ccccc2)c1` [Example 35], at human HDAC1 enzyme (setting [1]), the half-inhibitory concentration (IC50) was 5280 ± 3490 nM.

As to `CN(C)c1ccc(C2(C(=O)Nc3ccc(C(=O)NO)c(-c4ccccc4)c3)CCCC2)cc1` [Example 64], the half-maximal inhibitory concentration (IC50) on human HDAC1 enzyme (setting [1]) was above 10000 nM; on human HDAC7 enzyme, 556 ± 317 nM.
